Results published in article PMC10511816 (The Journal of Biological Chemistry, 2023).

Legend:
[1] = test system: mouse model of hyperuricemia; assay: mouse model of hyperuricemia (potassium oxonate), plasma purines by HPLC; assay type: in vivo; conditions: for plasma hypoxanthine levels vs control / plasma xanthine levels vs control: 1 h
Experimental: To compare the inhibitory effect of allopurinol and oxypurinol on uric acid production, mice were treated with oxonate to inhibit uricase and induce hyperuricemia.
Figure 2 Comparison of the effects of allopurinol and oxypurinol in a model of hyperuricemia. […] Statistical analysis was performed using one-way ANOVA and Turkey’s multiple comparison test. ∗p < 0.05, ∗∗p < 0.01, ∗∗∗∗p < 0.0001.
Six-week-old specific-pathogen free-grade male Institute of Cancer Research mice were purchased from Japan SLC. All animal experiments were performed according to the protocol approved by the Animal Care and Ethics Committee of Tokyo University of Pharmacy and Life Sciences (Permit No. P21-80). Mice were housed under conditions of 22 to 24 °C, 40 to 60% humidity, and a 12-h light/12-h dark cycle. Food and water were administered ad libitum.
Oxypurinol or allopurinol was suspended in 0.5% carboxymethyl cellulose and administered intraperitoneally at 3 mg/kg or 10 mg/kg (n = 11). The control group received 0.5% carboxymethyl cellulose (n = 5). Immediately after intraperitoneal administration, potassium oxonate was injected subcutaneously at 300 mg/kg. One hour after administration, mice were sacrificed by cervical dislocation, and blood was collected with heparin. […] Statistical analysis was performed using GraphPad Prism 9 software (www.graphpad.com).
(§1) Purine concentrations were measured using a Shimadzu HPLC system consisting of the CBM-20A controller, LC-20AD pump, SIL-20AC autosampler (set at 4 °C), CTO-20A column oven (set at 40 °C), and SPD-M20A diode array detector. Peak analysis was performed using LC solution software. A SUPELCOSIL LC-18-T column (25 cm × 4.6 mm id 5 μm particle size) was used with the SUPELCOSIL LC-18-T Supelguard guard column separation of purines, using a flow rate was 0.8 ml/min and 10 or 20 μl samples. The mobile phase used was A: 0.1 M KPB and 4 mM tetrabutylammonium hydrogen sulfate (pH 5.5), B: 70% buffer A and 30% methanol (v/v). Gradient conditions were 0 min (0% B), 2 min (0% B), 4 min (30% B), 12 min (60% B), 15 min (100% B), 19 min (100% B), 20 min (0% B), and 30 min (0% B). Detection wavelengths were 254 nm, 268 nm, and 295 nm. The data were analyzed using LabSolutions Ver. 5.97 SP1. All purines were identified by retention time and quantified using an external standard.

[2] = molecular target: T1, XO type enzyme (xanthine oxidase) (Bos taurus, UniProt P80457); assay: time-dependent inhibition of uric acid production from xanthine by XO (A295); assay type: biochemical, bovine; conditions: for 50% inhibition time of uric acid production / stop time of uric acid production: pH 8.5, 25 °C
T1 construct: Bovine milk was obtained from the animal farm of the Nippon Veterinary and Life Science University; from tissue; host or cells: bovine milk
T1 sequence (P80457 whole entry): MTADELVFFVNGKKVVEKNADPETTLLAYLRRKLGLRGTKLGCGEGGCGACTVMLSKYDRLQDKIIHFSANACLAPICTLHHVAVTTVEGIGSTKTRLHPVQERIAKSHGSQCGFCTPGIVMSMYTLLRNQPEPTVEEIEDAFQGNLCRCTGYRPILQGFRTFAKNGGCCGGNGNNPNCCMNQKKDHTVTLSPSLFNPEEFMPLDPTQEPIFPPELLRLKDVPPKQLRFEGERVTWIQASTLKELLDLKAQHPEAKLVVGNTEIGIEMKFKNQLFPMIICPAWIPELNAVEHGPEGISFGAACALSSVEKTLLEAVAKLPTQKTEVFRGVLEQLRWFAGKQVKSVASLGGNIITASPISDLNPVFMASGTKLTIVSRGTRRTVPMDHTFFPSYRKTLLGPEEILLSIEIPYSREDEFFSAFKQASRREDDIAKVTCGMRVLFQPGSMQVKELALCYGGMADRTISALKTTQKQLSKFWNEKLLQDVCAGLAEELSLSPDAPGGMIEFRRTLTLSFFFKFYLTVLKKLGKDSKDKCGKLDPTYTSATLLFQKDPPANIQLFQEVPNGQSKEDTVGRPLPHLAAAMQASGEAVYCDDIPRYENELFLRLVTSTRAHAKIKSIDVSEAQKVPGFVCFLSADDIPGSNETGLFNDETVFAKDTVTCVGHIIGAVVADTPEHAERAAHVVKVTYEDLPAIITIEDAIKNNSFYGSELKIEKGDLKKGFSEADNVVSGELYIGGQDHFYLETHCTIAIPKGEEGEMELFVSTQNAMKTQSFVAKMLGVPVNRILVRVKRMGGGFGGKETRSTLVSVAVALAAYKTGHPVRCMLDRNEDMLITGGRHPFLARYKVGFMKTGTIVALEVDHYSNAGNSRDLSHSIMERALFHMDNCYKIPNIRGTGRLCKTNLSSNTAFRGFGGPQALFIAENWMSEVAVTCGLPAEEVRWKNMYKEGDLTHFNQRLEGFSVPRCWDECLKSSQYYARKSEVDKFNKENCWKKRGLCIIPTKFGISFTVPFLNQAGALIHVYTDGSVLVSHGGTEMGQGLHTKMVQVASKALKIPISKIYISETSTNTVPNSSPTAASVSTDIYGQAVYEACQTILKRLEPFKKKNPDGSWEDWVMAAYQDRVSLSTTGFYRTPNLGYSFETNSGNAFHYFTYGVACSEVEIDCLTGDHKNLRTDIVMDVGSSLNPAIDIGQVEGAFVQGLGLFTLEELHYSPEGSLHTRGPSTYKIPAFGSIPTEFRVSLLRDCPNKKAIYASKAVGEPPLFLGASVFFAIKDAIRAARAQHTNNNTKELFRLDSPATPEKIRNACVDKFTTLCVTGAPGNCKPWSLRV
Experimental: A295 indicates the concentration of uric acid yielded by XOR. […] Uric acid production was measured at 295 nm at 25 °C.
(§2) Bovine milk was obtained from the animal farm of the Nippon Veterinary and Life Science University. […] The dehydrogenase form of the enzyme (XDH) was obtained by reacting XO immediately upon purification with 5 mM DTT at pH 8.5, 25 °C for 1 h. XO and XDH assays were carried out at 25 °C under aerobic conditions. […] A total of 500 μM β-NAD^+ was added to the same reaction solution for XDH activity. Physiological conditions such as pH 7.4 (0.1 M potassium phosphate buffer (KPB), 0.2 mM EDTA) and the addition of 50 μM β-NADH were also used. The activity was measured by following 295 nm and 340 nm on a UV-1800 or UV1900i spectrophotometer. […] In addition, the enzyme reaction solution was quenched with perchloric acid and neutralized with K2CO3, with products analyzed using HPLC as described below. Spectrophotometric data were analyzed using UV-Probe software Ver. 2.70 or LabSolutions UV-Vis Ver. […] Kinetic parameters were determined from nonlinear curve fits of raw data using GraphPad Prism 9 software.

[3] = cited from earlier work
[4] = molecular target: XDH (Bos taurus, UniProt P80457); assay: initial-velocity steady-state kinetics of XDH, NAD+ as electron acceptor; assay type: biochemical, bovine; set-up: Bovine milk was obtained from the animal farm of the Nippon Veterinary and Life Science University; from tissue; host or cells: bovine milk; conditions: for Types of inhibition / Ki: XDH; for Types of inhibition: NAD+
Chain of XDH (P80457 whole entry): as above
Experimental: as §2
A295 indicates the concentration of uric acid yielded by XOR. […] A295 indicates the concentration of uric acid yielded by XOR. Figure S2. The XOR inhibition mode of oxypurinol.A–G, Lineweaver-Burk plots were generated to visualize data and estimated the inhibition patterns. Data are representative of least two independent experiments. […] Figure S3. […] B, mode of inhibition of oxypurinol on the inosine degradation reaction of PNP. […] 0, 250, 375, 500, 750 and 1000 μM of oxypurinol were used. […] The rate of NAD^+ conversion to NADH was measured at A340 nm.

[5] = molecular target: XO (Bos taurus, UniProt P80457); assay: oxidation of hypoxanthine to xanthine and uric acid by XO, HPLC time course; assay type: biochemical, bovine; set-up: Bovine milk was obtained from the animal farm of the Nippon Veterinary and Life Science University; from tissue; host or cells: bovine milk
Chain of XO (P80457 whole entry): as above
Experimental: The rate of NAD^+ conversion to NADH was measured at A340 nm.
as §2, §1

[6] = 3 mg/kg intraperitoneal, 1 h after administration, oxonate-treated mice
[7] = one hour after 3 mg/kg allopurinol intraperitoneal
[8] = xanthine 5 μM, inhibitor 2 μM, XO
[9] = xanthine 10 μM, inhibitor 2 μM, XO
[10] = xanthine 50 μM, inhibitor 2 μM, XO
[11] = xanthine 50 μM, inhibitor 10 μM, XO
[12] = xanthine 50 μM, inhibitor 50 μM, XO
[13] = as substrate of XDH, electron acceptor NAD+, 340 nm, mean ± S.E.
[14] = xanthine 2 μM, inhibitor 2 μM, XO
[15] = xanthine 2 μM, inhibitor 10 μM, XO
[16] = xanthine 5 μM, inhibitor 10 μM, XO

Oc1ncnc2[nH]ncc12 [Allopurinol]
plasma hypoxanthine levels vs control ([1]; 3 mg/kg intraperitoneal): significantly increased plasma hypoxanthine levels
plasma xanthine levels vs control ([1]; 3 mg/kg intraperitoneal): xanthine levels were largely unaffected
plasma uric acid levels compared to the control group [1, 6]: significantly decreased plasma uric acid levels
allopurinol in plasma [1, 7]: little allopurinol was detected in the plasma
oxypurinol in plasma [1, 7]: a small amount of oxypurinol was also observed
effect on uric acid production ([2]; 10 μM or 50 μM inhibitor, 50 μM xanthine, XO): stops uric acid production immediately
50% inhibition time of uric acid production [2, 8]: 1.0 min
stop time of uric acid production [2, 8]: 3.0 min
50% inhibition time of uric acid production [2, 9]: 1.4 min
stop time of uric acid production [2, 9]: 6.9 min
50% inhibition time of uric acid production [2, 10]: 3.8 min
stop time of uric acid production [2, 10]: 14.9 min
50% inhibition time of uric acid production [2, 11]: 1.2 min
stop time of uric acid production [2, 11]: 4.5 min
50% inhibition time of uric acid production [2, 12]: 0.2 min
stop time of uric acid production [2, 12]: 0.7 min
serum oxypurinol concentrations ([3]; patients receiving 300 mg allopurinol daily for more than 2 weeks): greater than 100 μM
Km [4, 13]: 4.23 ± 0.52 µM
kcat [4, 13]: 1.83 ± 0.92 s⁻¹
time to inhibit conversion of hypoxanthine to xanthine ([5]; 10 μM inhibitor, 2.5 μM hypoxanthine, XO, pH 7.4, 25 °C): about 5 min
inhibition of conversion of hypoxanthine to xanthine ([5]; 50 μM inhibitor, 2.5 μM hypoxanthine, XO): inhibition was immediate

O=c1[nH]c(=O)c2c[nH]nc2[nH]1 [Oxypurinol]
plasma hypoxanthine levels vs control ([1]; 3 mg/kg intraperitoneal): neither hypoxanthine nor xanthine concentrations were significantly different from the control group
plasma xanthine levels vs control ([1]; 3 mg/kg intraperitoneal): neither hypoxanthine nor xanthine concentrations were significantly different from the control group
plasma uric acid levels compared to the control group [1, 6]: did not significantly reduce plasma uric acid levels
plasma hypoxanthine levels vs control ([1]; 10 mg/kg intraperitoneal): neither hypoxanthine nor xanthine concentrations were significantly different from the control group
plasma xanthine levels vs control ([1]; 10 mg/kg intraperitoneal): neither hypoxanthine nor xanthine concentrations were significantly different from the control group
plasma uric acid levels ([1]; 10 mg/kg intraperitoneal, 1 h after administration, oxonate-treated mice): reduce plasma uric acid to that seen with 3 mg/kg allopurinol
mode of inhibition ([2]; 2 μM xanthine, 0.1 M KPB pH 7.4): strictly competitive
uric acid production in presence of inhibitor ([2]; 2 μM xanthine, 0.1 M KPB pH 7.4, 0 to 400 μM oxypurinol): uric acid production was evident even with 400 μM oxypurinol
50% inhibition time of uric acid production [2, 14]: 9.0 min
stop time of uric acid production [2, 14]: 58.3 min
50% inhibition time of uric acid production [2, 15]: 14.9 min
stop time of uric acid production [2, 15]: 89.0 min
50% inhibition time of uric acid production ([2]; xanthine 2 μM, inhibitor 50 μM, XO): 49.5 min
ratio of 50% inhibition time, oxypurinol (min)/allopurinol (min) ([2]; xanthine 5 μM, inhibitor 2 μM): 10.8
ratio of stop time, oxypurinol (min)/allopurinol (min) ([2]; xanthine 5 μM, inhibitor 2 μM): 25.9
50% inhibition time of uric acid production [2, 8]: 10.8 min
stop time of uric acid production [2, 8]: 77.7 min
50% inhibition time of uric acid production [2, 16]: 20.1 min
stop time of uric acid production [2, 16]: 119.4 min
50% inhibition time of uric acid production ([2]; xanthine 5 μM, inhibitor 50 μM, XO): 38.3 min
ratio of 50% inhibition time, oxypurinol (min)/allopurinol (min) ([2]; xanthine 10 μM, inhibitor 2 μM): 10.9
ratio of stop time, oxypurinol (min)/allopurinol (min) ([2]; xanthine 10 μM, inhibitor 2 μM): 14.7
50% inhibition time of uric acid production [2, 9]: 15.3 min
stop time of uric acid production [2, 9]: 101.4 min
50% inhibition time of uric acid production ([2]; xanthine 10 μM, inhibitor 10 μM, XO): 20.8 min
50% inhibition time of uric acid production ([2]; xanthine 10 μM, inhibitor 50 μM, XO): 19.7 min
ratio of 50% inhibition time, oxypurinol (min)/allopurinol (min) ([2]; xanthine 50 μM, inhibitor 2 μM): 8.6
50% inhibition time of uric acid production [2, 10]: 32.7 min
ratio of 50% inhibition time, oxypurinol (min)/allopurinol (min) ([2]; xanthine 50 μM, inhibitor 10 μM): 10.8
50% inhibition time of uric acid production [2, 11]: 13.0 min
ratio of 50% inhibition time, oxypurinol (min)/allopurinol (min) ([2]; xanthine 50 μM, inhibitor 50 μM): 34.0
50% inhibition time of uric acid production [2, 12]: 6.8 min
oxypurinol concentrations necessary to achieve target serum uric acid levels ([3]; ref Stamp et al. 5, 16): > 100 µmol/L
Types of inhibition ([4]; substrate hypoxanthine, 340 nm): Competitive
Ki ([4]; substrate hypoxanthine, electron acceptor NAD+, 340 nm, mean ± S.E.): 3.15 ± 0.22 µM
Types of inhibition ([4]; substrate xanthine, 295 nm): Competitive
Ki ([4]; substrate xanthine, electron acceptor NAD+, 295 nm, mean ± S.E.): 4.6 ± 0.87 µM
accumulation of xanthine from hypoxanthine ([5]; up to 500 μM inhibitor, XO and XDH): accumulation of xanthine was still significant even at 500 μM oxypurinol
